Assay results from patent US12673944B2, “Compounds having inhibitory activity against glucosylceramide synthase or pharmaceutically acceptable salt thereof, processes for preparing the same, and pharmaceutical compositions comprising the same” (YUHAN CORPORATION, priority 2019, dated 2026).
pIC50: −log10 of the molar value.

Key:
[1] = test system: GM1 production in Jurkat cells; test: cells; assay type: cell-based; conditions: Homo sapiens, Jurkat, 72 h
[2] = biological target: T1, glucosylceramide synthase (GCS) (Homo sapiens, UniProt Q16739); test: GCS enzyme inhibition assay (A549 cell lysate, NBD C6-ceramide, HPLC fluorescence); assay type: biochemical; conditions: inhibitory activity against GCS, 37° C., 90 minutes
T1 construct: The obtained supernatant was used; host or cells: A549 cells (lysate supernatant after sonication)
T1 sequence (Q16739 1-394): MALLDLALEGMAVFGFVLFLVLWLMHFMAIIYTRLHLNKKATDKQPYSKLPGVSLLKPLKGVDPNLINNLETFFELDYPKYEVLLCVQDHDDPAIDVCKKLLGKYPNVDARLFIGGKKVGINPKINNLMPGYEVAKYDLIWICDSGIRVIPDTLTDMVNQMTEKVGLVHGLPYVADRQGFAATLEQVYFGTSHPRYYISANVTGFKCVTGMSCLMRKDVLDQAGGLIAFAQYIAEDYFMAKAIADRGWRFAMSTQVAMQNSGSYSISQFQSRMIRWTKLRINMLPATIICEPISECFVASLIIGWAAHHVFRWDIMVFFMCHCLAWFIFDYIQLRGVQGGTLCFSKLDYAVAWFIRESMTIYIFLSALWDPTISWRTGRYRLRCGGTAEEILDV
Procedure, shortened: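 Percent GCS activity was derived from the GlcCer share of Cer plus GlcCer areas, scaled from ibiglustat (0%) to DMSO (100%). Enzyme came from sonicated A549 lysate in 50 mM HEPES pH 7.3; 90 min incubation at 37° C, chloroform/methanol stop and extraction.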

Row | SMILES | pIC50 [1] | pIC50 [2]
1 | COc1ncc(-c2ccc3c(c2)OCC(C)(C)C3NC(=O)O[C@@H]2CN3CCC2CC3)cc1C (stereo partly drawn) [Example 254, (S)-quinuclidin-3-yl (7-(6-methoxy-5-methylpyridin-3-yl)-3,3-dimethylchroman-4-yl)carbamate] | 7.76 | 8.77
2 | CC1(C)COc2cc(/C=C/c3ccc(F)cc3)ccc2C1NC(=O)O[C@@H]1CN2CCC1CC2 (stereo partly drawn) [Example 293, (S)-quinuclidin-3-yl (7-((E)-4-fluorostyryl)-3,3-dimethylchroman-4-yl)carbamate] | 8.52 | 8.91
3 | COc1ncc(-c2ccc3c(c2)OCC(C)(C)C3NC(=O)O[C@@H]2CN3CCC2CC3)cc1Cl (stereo partly drawn) [Example 215, (S)-quinuclidin-3-yl (7-(5-chloro-6-methoxypyridin-3-yl)-3,3-dimethylchroman-4-yl)carbamate] | 8.60 | 8.80
4 | COc1cccc(-c2ccc3c(c2)OCCC3(C)NC(=O)O[C@@H]2CN3CCC2CC3)c1 (stereo partly drawn) [Example 299, (S)-quinuclidin-3-yl (7-(3-methoxyphenyl)-4-methylchroman-4-yl)carbamate] | 8.01 | 9.22
5 | COc1cccc(-c2ccc3c(c2)OCC(C)(C)C3NC(=O)O[C@@H]2CN3CCC2CC3)c1OC (stereo partly drawn) [Example 127, (S)-quinuclidin-3-yl (7-(2,3-dimethoxyphenyl)-3,3-dimethylchroman-4-yl)carbamate] | 7.85 | 8.68
6 | CC1(C)COc2cc(-c3cc(F)c(F)cc3F)ccc2C1NC(=O)O[C@@H]1CN2CCC1CC2 (stereo partly drawn) [Example 200, (S)-quinuclidin-3-yl (3,3-dimethyl-7-(2,4,5-trifluorophenyl)chroman-4-yl)carbamate] | 8.71 | 9.31
7 | O=C(NC1CCOc2cc(-c3ccc4c(c3)OCCCO4)ccc21)O[C@@H]1CN2CCC1CC2 (stereo partly drawn) [Example 58, (S)-quinuclidin-3-yl (7-(3,4-dihydro-2H-benzo[b][1,4]dioxepin-7-yl)chroman-4-yl)carbamate] | 7.67 | 8.70
8 | CC(C)(C)c1ccc(-c2cc3c(cc2F)C(NC(=O)O[C@@H]2CN4CCC2CC4)C(C)(C)CO3)cc1 (stereo partly drawn) [Example 345, (S)-quinuclidin-3-yl (7-(4-(tert-butyl)phenyl)-6-fluoro-3,3-dimethylchroman-4-yl)carbamate] | 8.80 | 9.43
9 | COCCOc1ccccc1-c1ccc2c(c1)OCCC2NC(=O)O[C@@H]1CN2CCC1CC2 (stereo partly drawn) [Example 7, (S)-quinuclidin-3-yl (7-(2-(2-methoxyethoxy)phenyl)chroman-4-yl)carbamate] | 7.47 | 8.48
10 | CC1(C)COc2cc(-c3ccc(F)nc3F)ccc2C1NC(=O)O[C@@H]1CN2CCC1CC2 (stereo partly drawn) [Example 278, (S)-quinuclidin-3-yl (7-(2,6-difluoropyridin-3-yl)-3,3-dimethylchroman-4-yl)carbamate] | 7.91 | 8.66
11 | CC(C)(C)c1ccc(-c2ccc3c(c2)OCC(C)(C)C3NC(=O)O[C@@H]2CN3CCC2CC3)cc1 (stereo partly drawn) [Example 193, (S)-quinuclidin-3-yl (7-(4-(tert-butyl)phenyl)-3,3-dimethylchroman-4-yl)carbamate] | 9.34 | 9.29
12 | CC1(C)COc2cc(-c3cccc(F)c3)c(F)cc2C1NC(=O)O[C@@H]1CN2CCC1CC2 (stereo partly drawn) [Example 330, (S)-quinuclidin-3-yl (6-fluoro-7-(3-fluorophenyl)-3,3-dimethylchroman-4-yl)carbamate] | 8.74 | 9.55
13 | Cc1ccccc1-c1ccc2c(c1)OCC(C)(C)C2NC(=O)O[C@@H]1CN2CCC1CC2 (stereo partly drawn) [Example 270, (S)-quinuclidin-3-yl (3,3-dimethyl-7-(o-tolyl)chroman-4-yl)carbamate] | 9.00 | 9.11
14 | CC1(NC(=O)O[C@@H]2CN3CCC2CC3)CCOc2cc(-c3ccc4c(c3)OC(F)(F)O4)ccc21 (stereo partly drawn) [Example 307, (S)-quinuclidin-3-yl (7-(2,2-difluorobenzo[d][1,3]dioxol-5-yl)-4-methylchroman-4-yl)carbamate] | 8.51 | 8.97
15 | CC1(C)COc2cc(-c3ccc(C#N)cc3)ccc2C1NC(=O)O[C@@H]1CN2CCC1CC2 (stereo partly drawn) [Example 247, (S)-quinuclidin-3-yl (7-(4-cyanophenyl)-3,3-dimethylchroman-4-yl)carbamate] | 7.97 | 9.24
16 | CC1(C)COc2cc(-c3ccc(F)cc3)c(F)cc2C1NC(=O)O[C@@H]1CN2CCC1CC2 (stereo partly drawn) [Example 331, (S)-quinuclidin-3-yl (6-fluoro-7-(4-fluorophenyl)-3,3-dimethylchroman-4-yl)carbamate] | 8.43 | 9.44

Row | SMILES | pIC50 [1] | pIC50 [2]
17 | CC1(C)COc2cc(-c3ccc(C(F)(F)F)cc3Cl)ccc2C1NC(=O)O[C@@H]1CN2CCC1CC2 (stereo partly drawn) [Example 137, (S)-quinuclidin-3-yl (7-(2-chloro-4-(trifluoromethyl)phenyl)-3,3-dimethylchroman-4-yl)carbamate] | 9.96 | 9.21
18 | CC1(C)COc2cc(-c3cncc4ccccc34)ccc2C1NC(=O)O[C@@H]1CN2CCC1CC2 (stereo partly drawn) [Example 155, (S)-quinuclidin-3-yl (7-(isoquinolin-4-yl)-3,3-dimethylchroman-4-yl)carbamate] | 9.11 | 9.22
19 | COc1cccc(OC)c1-c1ccc2c(c1)OCCC2NC(=O)O[C@@H]1CN2CCC1CC2 (stereo partly drawn) [Example 84, (S)-quinuclidin-3-yl (7-(2,6-dimethoxyphenyl)chroman-4-yl)carbamate] | 8.14 | 8.55
20 | CC1(C)COc2cc(-c3ccc(-c4ccon4)cc3)ccc2C1NC(=O)O[C@@H]1CN2CCC1CC2 (stereo partly drawn) [Example 259, (S)-quinuclidin-3-yl (7-(4-(isoxazol-3-yl)phenyl)-3,3-dimethylchroman-4-yl)carbamate] | 8.16 | 8.94
21 | CC1(C)COc2cc(-c3ccc(-c4ccccc4)cc3)ccc2C1NC(=O)O[C@@H]1CN2CCC1CC2 (stereo partly drawn) [Example 242, (S)-quinuclidin-3-yl (7-([1,1′-biphenyl]-4-yl)-3,3-dimethylchroman-4-yl)carbamate] | 8.42 | 9.28
22 | CC1(C)COc2cc(-c3ccc(F)cc3)ccc2C1NC(=O)O[C@@H]1CN2CCC1CC2 (stereo partly drawn) [Example 214, (S)-quinuclidin-3-yl (7-(4-fluorophenyl)-3,3-dimethylchroman-4-yl)carbamate] | 8.74 | 9.26
23 | CCOc1cccc(-c2ccc3c(c2)OCC(C)(C)C3NC(=O)O[C@@H]2CN3CCC2CC3)c1 (stereo partly drawn) [Example 158, (S)-quinuclidin-3-yl (7-(3-ethoxyphenyl)-3,3-dimethylchroman-4-yl)carbamate] | 8.82 | 9.38
24 | CC(C)COc1ccc(-c2ccc3c(c2)OCC(C)(C)C3NC(=O)O[C@@H]2CN3CCC2CC3)cc1 (stereo partly drawn) [Example 260, (S)-quinuclidin-3-yl (7-(4-isobutoxyphenyl)-3,3-dimethylchroman-4-yl)carbamate] | 9.52 | 9.29
25 | CC1(C)COc2cc(-c3cccc(-c4ccccc4)c3)ccc2C1NC(=O)O[C@@H]1CN2CCC1CC2 (stereo partly drawn) [Example 154, (S)-quinuclidin-3-yl (7-([1,1′-biphenyl]-3-yl)-3,3-dimethylchroman-4-yl)carbamate] | 9.39 | 9.13
26 | CCOc1ccc(-c2ccc3c(c2)OCC(C)(C)C3NC(=O)O[C@@H]2CN3CCC2CC3)cc1C(F)(F)F (stereo partly drawn) [Example 146, (S)-quinuclidin-3-yl (7-(4-ethoxy-3-(trifluoromethyl)phenyl)-3,3-dimethylchroman-4-yl)carbamate] | 8.63 | 9.01
27 | COc1c(C)cc(-c2cc3c(cc2F)C(NC(=O)O[C@@H]2CN4CCC2CC4)C(C)(C)CO3)cc1C (stereo partly drawn) [Example 346, (S)-quinuclidin-3-yl (6-fluoro-7-(4-methoxy-3,5-dimethylphenyl)-3,3-dimethylchroman-4-yl)carbamate] | 8.02 | 8.93
28 | COc1cc(-c2ccc3c(c2)OCC(C)(C)C3NC(=O)O[C@@H]2CN3CCC2CC3)ccc1Cl (stereo partly drawn) [Example 177, (S)-quinuclidin-3-yl (7-(4-chloro-3-methoxyphenyl)-3,3-dimethylchroman-4-yl)carbamate] | 8.01 | 8.86
29 | CC1(NC(=O)O[C@@H]2CN3CCC2CC3)CCOc2cc(-c3cccc(F)c3)ccc21 (stereo partly drawn) [Example 298, (S)-quinuclidin-3-yl (7-(3-fluorophenyl)-4-methylchroman-4-yl)carbamate] | 8.26 | 9.15
30 | O=C(NC1CCOc2cc(-c3ccc(C(F)(F)F)cc3)ccc21)O[C@@H]1CN2CCC1CC2 (stereo partly drawn) [Example 15, (S)-quinuclidin-3-yl (7-(4-(trifluoromethyl)phenyl)chroman-4-yl)carbamate] | 7.41 | 7.93
31 | COc1ccc(-c2cc3c(cc2OC)C(NC(=O)O[C@@H]2CN4CCC2CC4)C(C)(C)CO3)cc1 (stereo partly drawn) [Example 355, (S)-quinuclidin-3-yl (6-methoxy-7-(4-methoxyphenyl)-3,3-dimethylchroman-4-yl)carbamate] | 8.24 | 9.24
32 | CCOc1ccccc1-c1ccc2c(c1)OCCC2NC(=O)O[C@@H]1CN2CCC1CC2 (stereo partly drawn) [Example 20, (S)-quinuclidin-3-yl (7-(2-ethoxyphenyl)chroman-4-yl)carbamate] | 7.72 | 8.54
